According to patent US10463669B2, “Composition for treating or preventing liver cancer” (Seoul National University R&DB Foundation, priority 2016, dated 2019):

Experiments:
THLE-3 cells = assay: Cell proliferation / cell viability, MTS assay; format: cell-based, human
Experimental: THLE-3 cell line (immortalized human liver endothelial cell line produced by infection with SV40 large T antigen) was obtained from ATCC (American Type Culture Collection). Cell line authentication by KCLB and ATCC was carried out by using DNA fingerprinting as a short tandem repeat analysis. All cell lines were tested for mycoplasma contamination. […] As it has been recommended by the ATCC manual, THLE-3 cells were cultured in BEGM (Lonza) medium complemented with 10% fetal bovine serum in a humidified 5% CO2 incubator at 37° C.
As it has been described before (10), the cell viability was measured by using Cell Titer 96 MTS (Promega). Cells were sewn in an amount of 500 to 1000 cells per well, and then treated for 96 hours at a pharmaceutical concentration as described in each graph. Each analysis was repeated 3 times at least. After plotting the data, IC50 values were obtained by using GraphPad software. By using Flexstation 3 multimode plate reader (Molecular Devices), optical density showing formazan production was measured at 490 nm.

[1] = tested on: AKT phosphorylation in HCC cell lines (Huh7 and Hep3B); assay: AKT phosphorylation, immunoblot assay; format: cell-based, human; details: HCC cells
Experimental: (§1) Medium was exchanged every day, and the aforementioned cells were cultured for 4 days in 300 μmol/L hydrogen peroxide (H2O2) (Sigma Aldrich; H1009). In several experiments, the cells were treated for 1 hour with 5 mmol/L N-acetylcysteine (NAC) (Sigma Aldrich; A7250), 25 μmol/L idelalisib (LC Laboratoties, Woburn, Mass., USA; I-7447), 25 μmol/L perifosine (LC Laboratoties, Woburn, Mass., USA; P-6522), or 30 μmol/L GSK3β inhibitor (GSK3β inhibitor XI) (Santa Cruz; sc-204770) (31) before adding H2O2. Furthermore, sterilized distilled water (pH 7.0) was used as a negative control (i.e., mock treatment).
(§2) Total 2×10^5 cells were boiled for 5 minutes in 2×SDS sample buffer (100 mmol/L TrisHCl [pH 6.8], 4% SDS, 0.2% bromophenol blue, 20% glycerol, and 200 mmol/L β-mercaptoethanol), and then subjected to SDS-PAGE and Western blotting. To detect the TERT, the cells were cultured in 2×SDS sample buffer for 15 minutes at 55° C. TERT-specific (1:300, Rockland Immunochemicals, Gilbertsville, Pa., USA; 600-401-252), AKT-specific (1:1000, Cell Signaling Technology; #9272), phospho-AKT-specific (1:2000, Cell Signaling Technology; #4060), GAPDH-specific (1:2000, Santa Cruz Biotechnology; sc-47724), or β-actin-specific (1:2000, Sigma-Aldrich, St. Louis, Mo., USA; A5441) antibody was diluted in 5% skim milk or bovine serum albumin with TBS-Tween 20, cultured overnight at 4° C., washed, and cultured with HRP-conjugated secondary antibody (1:1000, Abcam; ab131368, or ab131366). By using FUSION-SOLO imager (Vilber Lourmat, Marne La Vallee, France), a chemical fluorescence image was obtained.

[2] = tested on: TERT expression in HCC cell lines (Huh7 and Hep3B); assay: TERT expression, quantitative real time-PCR and immunoblot; format: cell-based, human
Experimental: as §1
(§3) PCR was carried out by using TOPrealm qPCR 2×PreMIX (SYBR Green with high ROX) (Enzynomics, Daejeon, Korea; RT501M) and ABI Prism 7300 thermal cycler (Applied Biosystems, Foster City, Calif., USA). […] To examine the primer specificity, a dissociation step was additionally included.
as §2

[3] = tested on: TERT expression in THLE-3 cells; assay: as above; format: cell-based, human
Experimental: as §1, §3, §2

[4] = tested on: telomere length in THLE-3 cells; assay: Telomere length (immunoFISH, Flow FISH, quantitative PCR); format: cell-based, human
Experimental: Flow FISH was carried out as described before (Rufer N, et al., Nat Biotechnol. 1998; 16: 743-7) with few modifications. The cells were washed twice with cold PBS (phosphate-buffered saline) solution containing 0.1% w/v bovine serum albumin (BSA). Subsequently, the cells were re-suspended in hybridization buffer (70% deionized formamide (Amresco, Solon, Ohio, USA), 20 mmol/L TrisHCl [pH 6.8], 1% BSA, and 1 nmol/L FAM-labeled telomere PNA (telomere peptide nucleic acid) probe ([…], Korea), or 1 nmol/L FAM-labeled centromere PNA probe ([…]). Volume of the hybridization buffer was adjusted to 100 μl per 10^5 cells. Next, each sample was cultured for 10 minutes in a water bath at 85° C. […] Total 15,000 to 20,000 nuclei were analyzed for the each separate culture. Telomere fluorescence intensity of the all nuclei at […] phase of the cell cycle was measured by using BD FACS Calibur flow cytometer (Becton Dickinson, Franklin Lakes, N.J., USA) in which CELLQUEST software is used. […] For quantification of the telomere fluorescence intensity, centromere fluorescence intensity, and 8-oxo-dG fluorescence intensity, the same exposure time was employed. The telomere fluorescence level and 8-oxo-dG fluorescence level of tumor tissues were calculated by division of the fluorescence level in non-tumor tissues corresponding to 5 random fields. […]

[5] = tested on: PI3K isotype p110δ expression in HCC cells; details: HCC cells after treatment with H2O2
Experimental: as §1, §3

[6] = THLE-3 cells exposed to 150 μmol/L H2O2

`CC[C@H](Nc1ncnc2nc[nH]c12)c1nc2cccc(F)c2c(=O)n1-c1ccccc1` [idelalisib, 5-fluoro-3-phenyl-2-[(1S)-1-(7H-purin-6-ylamino)propyl]-4(3H)-quinazolinone] was tested, and the IC50 (THLE-3 cells; Homo sapiens, THLE3, MTS assay, treated for 96 hours) was over 200 µM, the pAKT [1] was “inhibit” and the “TERT expression reduced by” value ([2]; 300 μmol/L H2O2-treated HCC cells plus idelalisib, compared to HCC cells treated with H2O2 only) was 65%-70%. For the same compound, the “ROS-mediated increase in the TERT expression” value ([2]; H2O2-treated cells) was “almost completely inhibited”, the TERT expression ([2]; two HCC cell lines, no H2O2) was “reduced” and the TERT expression ([3]; THLE-3 cells) was “not reduced”. The telomere length ([4]; THLE-3 cells) was “not reduced”.

In the case of `OO` [H2O2, hydrogen peroxide], the “cells that did not survive” value (THLE-3 cells; [6]) is reported as 85%, the “TERT expression increased by” value ([2]; HCC cells treated with 300 μmol/L H2O2, compared to control HCC cells not exposed to H2O2) is reported as 40%-45% and the TERT expression level ([3]; THLE-3 cells after H2O2 treatment) is reported as “no change”. The telomere length [4, 6] was “reduction” and the “p110δ expression (only isotype among p110α, p110β, p110δ, p110γ)” value [5] was “increased”.
